Experimental data from patent publication US9296741B2, “Bromodomain inhibitors” (priority 2012, dated 2016).
Read-outs that look alike come from different tables or passages of the source. Marks after values point to notes of the source that are not given here.

Key:
[1] = test system: MV4-11 human cancer cell xenograft; test: Xenograft efficacy study, MV4-11; format: in vivo, mouse; conditions: PO, QDx21, vehicle D
[2] = Human liver microsome stability assay; format: in vitro ADME; conditions: both sexes, human, microsomes, pH 7.4
[3] = biological target: human BRD4 first bromodomain (BDI_K57-E168) (Homo sapiens (Human), UniProt O60885); test: TR-FRET bromodomain binding assay, BRD4 first bromodomain
[4] = test system: HT1080 human cancer cell xenograft; test: Xenograft efficacy study, HT1080; format: in vivo, mouse; conditions: PO, QDx14, vehicle H
[5] = test system: rat collagen induced arthritis (rCIA) paw swelling; test: animal or person; conditions: po, read-out: ED50, inhibition of inflammation in the arthritic paw
[6] = test system: rat collagen induced arthritis (rCIA) paw swelling
[7] = test system: SKM1 human cancer cell xenograft; test: Xenograft efficacy study, SKM1; format: in vivo, mouse; conditions: PO, QDx21, vehicle A
[8] = test system: OPM-2 human multiple myeloma xenograft tumors; test: animal or person; conditions: Mus musculus; for change in vivo at 0.5 mg/kg / inhibition in vivo at 0.5 mg/kg: 0.5 mg/kg/day; for change in vivo at 1 mg/kg / inhibition in vivo at 1 mg/kg: 1 mg/kg/day
[9] = test system: LPS induced IL-6 production; test: LPS (lipopolysaccharide) induced IL-6 production mouse assay; format: in vivo; conditions: Mus musculus, read-out: Inhibition of LPS induced IL-6 production in Mice, % inhibition at 3 mg/kg; 3 mg/kg oral, 1 h before LPS; serum IL-6 2 h after LPS
[10] = test system: MX-1 human breast cancer xenograft tumors; test: Xenograft tumor growth inhibition assay, MX-1; format: in vivo, mouse
[11] = Rat liver microsome stability assay; format: in vitro ADME; conditions: rat liver microsomes (male Sprague-Dawley), 0.5 μM test compound, 0.25 mg/mL microsomal protein, pH 7.4, 37° C.; read-out: Stability in rat liver microsomes (t1/2 in minutes)
[12] = Mouse liver microsome stability assay; format: in vitro ADME; conditions: male, CD1, mouse, microsomes, pH 7.4
[13] = test system: breast cancer cell line MX-1; test: MX-1 cell line proliferation assay; format: cell-based, human; conditions: Homo sapiens, MX1, 72 h; MX-1 cells, 3-day proliferation, Cell Titer Glo; read-out: Cellular proliferation: EC50
[14] = OPM-2, po, read-out: % TGI (tumor growth inhibition), OPM-2, PO, QDx21, vehicle A
[15] = MX-1, 0.3 mg/kg/day, PO, QD, vehicle F
[16] = MX-1, 1 mg/kg/day, PO, QD, vehicle F
[17] = MX-1, 3 mg/kg/day, PO, QD, vehicle F

CCS(=O)(=O)Nc1ccc(Oc2ccc(F)cc2F)c(-c2cn(C)c(=O)c3[nH]ccc23)c1 [Example 36, N-[4-(2,4-difluorophenoxy)-3-(6-methyl-7-oxo-6,7-dihydro-1H-pyrrolo[2,3-c]pyridin-4-yl)phenyl]ethanesulfonamide]
% TGD (tumor growth delay) ([1]; 0.2 mg/kg/day): 16*** % | % TGI (tumor growth inhibition) ([1]; 0.2 mg/kg/day): 22* % | % removed from study ([1]; 0.2 mg/kg/day): 0% | % TGD (tumor growth delay) ([1]; 2 mg/kg/day): 94* % | % TGI (tumor growth inhibition) ([1]; 2 mg/kg/day): 81*** % | % removed from study ([1]; 2 mg/kg/day): 0% | half-life at 0.5 μM [2]: > 2 h | Ki [3]: 3.5 nM | % TGD (tumor growth delay) ([4]; 0.3 mg/kg/day): −1% | % TGI (tumor growth inhibition) ([4]; 0.3 mg/kg/day): 26% | % removed from study ([4]; 0.3 mg/kg/day): 30% | % TGD (tumor growth delay) ([4]; 1 mg/kg/day): 3% | % TGI (tumor growth inhibition) ([4]; 1 mg/kg/day): 41* % | % removed from study ([4]; 1 mg/kg/day): 10% | % TGD (tumor growth delay) ([4]; 3 mg/kg/day): 46*** % | % TGI (tumor growth inhibition) ([4]; 3 mg/kg/day): 47** % | % removed from study ([4]; 3 mg/kg/day): 10% | ED50 [5]: 0.21 mg/kg | maximum plasma concentration at the ED50 ([6]; female, Lewis, rat, in vivo): 0.0068 µg/mL | maximum plasma concentration at the ED80 ([6]; female, Lewis, rat, in vivo): 0.0223 µg/mL | AUC of Paw Swelling, MEAN ([6]; rCIA, dosed at 0.03 mg/kg orally once daily day 10-17): 4.19 mL·days | AUC of Paw Swelling, MEAN ([6]; rCIA, dosed at 0.1 mg/kg orally once daily day 10-17): 3.66* ml-day | AUC of Paw Swelling, MEAN ([6]; rCIA, dosed at 0.3 mg/kg orally once daily day 10-17): 1.84** ml-day | AUC of Paw Swelling, MEAN ([6]; rCIA, dosed at 1.0 mg/kg orally once daily day 10-17): 0.70** ml-day | ED80, inhibition of inflammation in the arthritic paw ([6]; rCIA, oral once daily): 0.69 mg/kg | % TGD (tumor growth delay) ([7]; 0.2 mg/kg/day): 93% | % TGI (tumor growth inhibition) ([7]; 0.2 mg/kg/day): 41* % | % removed from study ([7]; 0.2 mg/kg/day): 0% | % TGD (tumor growth delay) ([7]; 2 mg/kg/day): 721*** % | % TGI (tumor growth inhibition) ([7]; 2 mg/kg/day): 86** % | % removed from study ([7]; 2 mg/kg/day): 0% | change in vivo at 0.5 mg/kg ([8]; OPM-2, ip, read-out: % TGD (tumor growth delay), OPM-2, IP, QDx21, vehicle F): 52% | change in vivo at 1 mg/kg ([8]; OPM-2, ip, read-out: % TGD (tumor growth delay), OPM-2, IP, Q4DX3, vehicle F): 80% | inhibition in vivo at 0.5 mg/kg ([8]; OPM-2, ip, read-out: % TGI (tumor growth inhibition), OPM-2, IP, QDx21, vehicle F): 49% | inhibition in vivo at 1 mg/kg ([8]; OPM-2, ip, read-out: % TGI (tumor growth inhibition), OPM-2, IP, Q4DX3, vehicle F): 61% | inhibition in vivo at 1 mg/kg ([8]; OPM-2, iv, read-out: % TGI (tumor growth inhibition), OPM-2, IV, Q4Dx3, vehicle C): 69% | inhibition in vivo at 3 mg/kg ([8]; OPM-2, po, 744 h, read-out: % TGI (tumor growth inhibition), OPM-2 xenograft, 3 mg/kg/day PO, QDx14, based on day 31): 90% | change in vivo at 0.5 mg/kg ([8]; OPM-2, po, read-out: % TGD (tumor growth delay), OPM-2, PO, QDx21, vehicle A): 101% | change in vivo at 1 mg/kg ([8]; OPM-2, po, read-out: % TGD (tumor growth delay), OPM-2, PO, BIDx21, vehicle A): 140% | change in vivo at 3 mg/kg ([8]; OPM-2, po, read-out: % TGD (tumor growth delay), OPM-2, 3 mg/kg/day, PO, QDx14, vehicle A): 21% | change in vivo at 3 mg/kg ([8]; OPM-2, po, read-out: % TGD (tumor growth delay), OPM-2, 3 mg/kg/day, PO, QDx21, vehicle A): 131% | change in vivo at 6 mg/kg ([8]; OPM-2, po, read-out: % TGD (tumor growth delay), OPM-2, 6 mg/kg/day, PO, Q2D x21 d, vehicle A): 84% | change in vivo at 7 mg/kg ([8]; OPM-2, po, read-out: % TGD (tumor growth delay), OPM-2, 7 mg/kg/day, PO, QD(3 on 4 off)x3, vehicle A): 97% | change in vivo at 10.5 mg/kg ([8]; OPM-2, po, read-out: % TGD (tumor growth delay), OPM-2, 10.5 mg/kg/day, PO, QD(2 on 5 off)x3, vehicle A): 94% | change in vivo at 3 mg/kg ([8]; OPM-2, po, read-out: % TGD (tumor growth delay), OPM-2 xenograft, 3 mg/kg/day PO, QDx14, endpoint of 1000 mm^3): 78% | inhibition in vivo at 0.5 mg/kg [8, 14]: 75% | inhibition in vivo at 1 mg/kg ([8]; OPM-2, po, read-out: % TGI (tumor growth inhibition), OPM-2, PO, BIDx21, vehicle A): 74% | inhibition in vivo at 1 mg/kg [8, 14]: 75% | inhibition in vivo at 3 mg/kg ([8]; OPM-2, po, read-out: % TGI (tumor growth inhibition), OPM-2, 3 mg/kg/day, PO, QDx14, vehicle A): 90% | inhibition in vivo at 3 mg/kg ([8]; OPM-2, po, read-out: % TGI (tumor growth inhibition), OPM-2, 3 mg/kg/day, PO, QDx21, vehicle A): 88% | inhibition in vivo at 6 mg/kg ([8]; OPM-2, po, read-out: % TGI (tumor growth inhibition), OPM-2, 6 mg/kg/day, PO, Q2D x21 d, vehicle A): 82% | inhibition in vivo at 7 mg/kg ([8]; OPM-2, po, read-out: % TGI (tumor growth inhibition), OPM-2, 7 mg/kg/day, PO, QD(3 on 4 off)x3, vehicle A): 81% | inhibition in vivo at 10.5 mg/kg ([8]; OPM-2, po, read-out: % TGI (tumor growth inhibition), OPM-2, 10.5 mg/kg/day, PO, QD(2 on 5 off)x3, vehicle A): 75% | inhibition in vivo at 3 mg/kg [9]: 78% | % TGD (tumor growth delay) [10, 15]: 40% | % TGI (tumor growth inhibition) [10, 15]: 43** % | % removed from study [10, 15]: 0% | % TGI (tumor growth inhibition) [10, 16]: 60*** % | % removed from study [10, 16]: 0% | % TGI (tumor growth inhibition) [10, 17]: 76*** % | % removed from study [10, 17]: 0% | % TGI (tumor growth inhibition) ([10]; MX-1 xenograft, 0.3 mg/kg/day PO, QDx14, based on day 27): 43** % | % TGI (tumor growth inhibition) ([10]; MX-1 xenograft, 1 mg/kg/day PO, QDx14, based on day 27): 60*** % | % TGI (tumor growth inhibition) ([10]; MX-1 xenograft, 3 mg/kg/day PO, QDx14, based on day 27): 76*** % | half-life at 0.5 μM [11]: > 2 h | half-life at 0.5 μM [12]: 0.683 h | EC50 [13]: 17.4 nM
